Data: ChEMBL document CHEMBL5131386, “Synthesis and biological evaluation of novel schisanhenol derivatives as potential hepatoprotective agents” (Eur J Med Chem, 2022)
Activity calls are given as the source filed them. The rule behind the calls is not given here.

Tests used:
L02 [1] = experiment: Hepatoprotective activity against concanavalin A induced liver injury in human HL7702 cells assessed as cell survival rate at 5 uM preincubated for 12 hrs followed by concanavalin A stimulation for 12 hrs by MTT assay (reference value: 51.37%); format: functional; conditions: time 24 hrs, read-out: Survival
L02 [2] = experiment: Cytotoxicity against human HL7702 cells ssessed as cell survival rate at 5 uM for 12 hrs by MTT assay; format: toxicity, cell-based; conditions: l02, 12 h
L02 [3] = experiment: Hepatoprotective activity against concanavalin A induced human HL7702 cell apoptosis assessed as decrease in cleaved caspase-3 level at 5 uM preincubated for 12 hrs followed by concanavalin A stimulation for 12 hrs by Western blot analysis; format: functional, cell-based; conditions: time 24.0 hrs
L02 [4] = experiment: Hepatoprotective activity against concanavalin A induced human HL7702 cell apoptosis assessed as increase in Bcl-2 expression level at 5 uM preincubated for 12 hrs followed by concanavalin A stimulation for 12 hrs by Western blot analysis; format: functional, cell-based; conditions: time 24.0 hrs
L02 [5] = experiment: Hepatoprotective activity against concanavalin A induced human HL7702 cell apoptosis assessed as nuclear morphological changes at 5 uM preincubated for 12 hrs followed by concanavalin A stimulation for 12 hrs by Hoechst 33342 staining based fluorescence microscopy; format: functional; conditions: time 24.0 hrs
L02 [6] = experiment: Hepatoprotective activity against concanavalin A induced human HL7702 cell apoptosis assessed as decrease in Bax expression level at 5 uM preincubated for 12 hrs followed by concanavalin A stimulation for 12 hrs by Western blot analysis; format: functional, cell-based; conditions: time 24.0 hrs
L02 [7] = experiment: Hepatoprotective activity against concanavalin A induced livery injury in human HL7702 cells assessed as decrease in JAK2 phosphorylation level at 5 uM preincubated for 12 hrs followed by concanavalin A stimulation for 12 hrs by Western blot analysis; format: functional, cell-based; conditions: time 24.0 hrs
L02 [8] = experiment: Hepatoprotective activity against concanavalin A induced livery injury in human HL7702 cells assessed as decrease in STAT3 phosphorylation level at 5 uM preincubated for 12 hrs followed by concanavalin A stimulation for 12 hrs by Western blot analysis; format: functional, cell-based; conditions: time 24.0 hrs
L02 [9] = experiment: Hepatoprotective activity against concanavalin A induced livery injury in human HL7702 cells assessed as increase in HO-1 expression level at 5 uM preincubated for 12 hrs followed by concanavalin A stimulation for 12 hrs by Western blot analysis; format: functional, cell-based; conditions: time 24.0 hrs
Mus musculus [10] = experiment: Hepatoprotective activity against concanavalin A induced C57BL/6 mouse livery injury model assessed as increase in Bcl-2 level at 5 mg/kg, ip once daily for 2 weeks followed by concanavalin A stimulation and measured after 12 hrs by Western blot analysis; format: functional, organism-based
L02 [11] = experiment: Hepatoprotective activity against concanavalin A induced livery injury in human HL7702 assessed as decrease in IL-6 expression level at 5 uM preincubated for 24 hrs followed by concanavalin A stimulation for 12 hrs by ELISA assay; format: functional, cell-based; conditions: time 36.0 hrs
Mus musculus [12] = experiment: Hepatoprotective activity against concanavalin A induced C57BL/6 mouse livery injury model assessed as decrease in serum IL-6 level at 5 mg/kg, ip once daily for 2 weeks followed by concanavalin A stimulation and measured after 12 hrs by ELISA; format: functional, organism-based
L02 [13] = experiment: Hepatoprotective activity against concanavalin A induced livery injury in human HL7702 assessed as decrease in IL-6 expression level at 5 uM preincubated for 12 hrs followed by concanavalin A stimulation for 12 hrs by Western blot analysis; format: functional, cell-based; conditions: time 24.0 hrs
Mus musculus [14] = experiment: (§1) Hepatoprotective activity against concanavalin A induced C57BL/6 mouse livery injury model assessed as decrease in cleaved caspase-3 level in liver at 5 mg/kg, ip once daily for 2 weeks followed by concanavalin A stimulation and measured after 12 hrs by DAB staining based immunohistological anlaysis; format: functional, organism-based
Mus musculus [15] = experiment: Hepatoprotective activity against concanavalin A induced C57BL/6 mouse livery injury model assessed as decrease in severity of liver damage at 5 mg/kg, ip once daily for 2 weeks followed by concanavalin A stimulation and measured after 12 hrs by H&E staining based […]; format: functional, organism-based
Mus musculus [16] = experiment: Hepatoprotective activity against concanavalin A induced C57BL/6 mouse livery injury model assessed as decrease in STAT3 phosphorylation level at 5 mg/kg, ip once daily for 2 weeks followed by concanavalin A stimulation and measured after 12 hrs by Western blot analysis; format: functional, organism-based
Mus musculus [17] = experiment: Hepatoprotective activity against concanavalin A induced C57BL/6 mouse livery injury model assessed as decrease in JAK2 phosphorylation level at 5 mg/kg, ip once daily for 2 weeks followed by concanavalin A stimulation and measured after 12 hrs by Western blot analysis; format: functional, organism-based
Mus musculus [18] = experiment: Hepatoprotective activity against concanavalin A induced C57BL/6 mouse livery injury model assessed as decrease in cleaved caspase 3 level at 5 mg/kg, ip once daily for 2 weeks followed by concanavalin A stimulation and measured after 12 hrs by Western blot analysis; format: functional, organism-based
Mus musculus [19] = experiment: Hepatoprotective activity against concanavalin A induced C57BL/6 mouse livery injury model assessed as decrease in Bax level at 5 mg/kg, ip once daily for 2 weeks followed by concanavalin A stimulation and measured after 12 hrs by Western blot analysis; format: functional, organism-based
Mus musculus [20] = experiment: as §1, with “phosphorylated STAT3” for “cleaved caspase-3”; format: functional, organism-based
Mus musculus [21] = experiment: Hepatoprotective activity against concanavalin A induced C57BL/6 mouse livery injury model assessed as decrease in serum AST level at 5 mg/kg, ip once daily for 2 weeks followed by concanavalin A stimulation and measured after 12 hrs; format: functional, organism-based
Mus musculus [22] = experiment: Hepatoprotective activity against concanavalin A induced C57BL/6 mouse livery injury model assessed as decrease in serum ALT level at 5 mg/kg, ip once daily for 2 weeks followed by concanavalin A stimulation and measured after 12 hrs; format: functional, organism-based

| SMILES | viability at 5 µM (L02 [1]) [%] | Activity (L02 [2]) | Activity (L02 [3]) | Activity (L02 [4]) | Activity (L02 [5]) | Activity (L02 [6]) | also measured |
| --- | --- | --- | --- | --- | --- | --- | --- |
| COc1cc2c(c(OC)c1OC)-c1c(c(N)c(OC)c(OC)c1OS(=O)(=O)c1ccc(C)cc1)CC(C)C(C)C2 (stereo not given) | 89 | Non-Toxic | Active | Active | Active | Active |  |
| COc1c(Cl)c2c(c(OC)c1OC)-c1c(c(Cl)c(OC)c(OC)c1OC(=O)/C=C/c1ccccc1)CC(C)C(C)C2 (stereo not given) | 89.7 | Non-Toxic | Active | Active | Active | Active | Activity (L02 [7]): Active; Activity (L02 [8]): Active; Activity (L02 [9]): Active |
| COc1cc2c(c(OC)c1OC)-c1c(O)c(OC)c(OC)c(N)c1CC(C)C(C)C2 (stereo not given) | 97.1 | Non-Toxic | Active | Active | Active | Active |  |
| COc1ccc(C(=O)Oc2c(OC)c(OC)c(Cl)c3c2-c2c(cc(OC)c(OC)c2OC)CC(C)C(C)C3)cc1 (stereo not given) | 70 |  |  |  |  |  |  |
| COc1cc2c(c(OC)c1OC)-c1c(c([N+](=O)[O-])c(OC)c(OC)c1OC(=O)/C=C/c1ccccc1)CC(C)C(C)C2 (stereo not given) | 97.4 | Non-Toxic | Active | Active | Active | Active |  |
| COc1cc2c(c(OC)c1OC)-c1c(c(Cl)c(OC)c(OC)c1OC(=O)CCl)CC(C)C(C)C2 (stereo not given) | 68.4 |  |  |  |  |  |  |
| COc1cc2c(c(OC)c1OC)-c1c(c(Cl)c(OC)c(OC)c1OC(=O)c1cccnc1)CC(C)C(C)C2 (stereo not given) | 93.7 | Non-Toxic | Active | Active | Active | Active | Activity (L02 [7]): Active; Activity (L02 [8]): Active; Activity (L02 [9]): Active |
| COc1cc2c(c(OC)c1OC)-c1c(c(Cl)c(OC)c(OC)c1OC(=O)/C=C/c1ccccc1)CC(C)C(C)C2 (stereo not given) | 110 | Non-Toxic | Active | Active | Active | Active | Activity (Mus musculus [10]): Active; Activity (L02 [11]): Active; Activity (Mus musculus [12]): Active; Activity (L02 [13]): Active; Activity (L02 [7]): Active; Activity (Mus musculus [14]): Active; Activity (Mus musculus [15]): Active; Activity (Mus musculus [16]): Active; Activity (Mus musculus [17]): Active; Activity (Mus musculus [18]): Active; Activity (Mus musculus [19]): Active; Activity (Mus musculus [20]): Active; Activity (L02 [8]): Active; Activity (L02 [9]): Active; Activity (Mus musculus [21]): Active; Activity (Mus musculus [22]): Active |
| COc1c(Cl)c2c(c(OC)c1OC)-c1c(c(Cl)c(OC)c(OC)c1OC(=O)c1ccc(Cl)cc1Cl)CC(C)C(C)C2 (stereo not given) | 68 |  |  |  |  |  |  |
| COc1cc2c(c(OC)c1OC)-c1c(c([N+](=O)[O-])c(OC)c(OC)c1OC(=O)c1cccnc1)CC(C)C(C)C2 (stereo not given) | 49.9 |  |  |  |  |  |  |
| COc1c(Cl)c2c(c(OC)c1OC)-c1c(c(Cl)c(OC)c(OC)c1OCCCO)CC(C)C(C)C2 (stereo not given) | 67.1 |  |  |  |  |  |  |
| COc1c(Cl)c2c(c(OC)c1OC)-c1c(c(Cl)c(OC)c(OC)c1OC(=O)c1ccc(C(F)(F)F)cc1)CC(C)C(C)C2 (stereo not given) | 65.1 |  |  |  |  |  |  |
| COc1c(Cl)c2c(c(OC)c1OC)-c1c(c(Cl)c(OC)c(OC)c1OS(=O)(=O)Cc1ccccc1)CC(C)C(C)C2 (stereo not given) | 71.4 |  |  |  |  |  |  |
